From the NIST ThermoML archive (doi:10.1016/j.jct.2008.01.006)

Conditions: Liquid, Vibrating tube method

CCCCCCN [1-hexanamine]
mass density [kg/m3]
Conditions | 293.15 K | 303.15 K | 313.15 K | 323.15 K | 333.15 K | 343.15 K | 353.15 K
100 kPa | 765.1 | 756.2 | 748.2 | 738.9 | 730.2 | 721.3 | 712.4
10000 kPa | 771.5 | 763.5 | 755.4 | 746.9 | 738.7 | 730.6 | 722.3
20000 kPa | 777.6 | 770.2 | 762.3 | 754.2 | 746.3 | 738.8 | 731.1
30000 kPa | 783.4 | 776.3 | 768.6 | 761 | 753.4 | 746.4 | 739
40000 kPa | 788.8 | 781.9 | 774.6 | 767.2 | 759.9 | 753.2 | 746
50000 kPa | 793.8 | 787.2 | 780.2 | 772.9 | 765.9 | 759.6 | 752.5
60000 kPa | 798.8 | 792.2 | 785.3 | 778.4 | 771.6 | 765.6 | 759
70000 kPa | 803.3 | 796.9 | 790.3 | 783.5 | 776.9 | 771 | 764.6
80000 kPa | 807.7 | 801.5 | 794.9 | 788.4 | 781.9 | 776.2 | 770
90000 kPa | 811.9 | 805.8 | 799.4 | 792.9 | 786.7 | 781.1 | 775.1
100000 kPa | 815.9 | 810 | 803.7 | 797.3 | 791.2 | 785.9 | 780
110000 kPa | 819.8 | 814 | 807.8 | 801.7 | 795.7 | 790.3 | 784.6
120000 kPa | 823.5 | 817.9 | 811.7 | 805.8 | 799.9 | 794.6 | 789.1
130000 kPa | 827.1 | 821.6 | 815.5 | 809.7 | 803.8 | 798.8 | 793.2
140000 kPa | 830.5 | 825.1 | 819.1 | 813.5 | 807.6 | 802.7 | 797.3

CCCCCN [1-pentanamine]
mass density [kg/m3]
Conditions | 293.15 K | 303.15 K | 313.15 K | 323.15 K | 333.15 K | 343.15 K | 353.15 K
100 kPa | 754.1 | 744.7 | 735.6 | 726.4 | 716.9 | 707.5 | 698
10000 kPa | 760.9 | 752.6 | 743.8 | 735.1 | 726.1 | 717.8 | 708.7
20000 kPa | 767.4 | 759.6 | 751.1 | 742.8 | 734.3 | 726.5 | 718
30000 kPa | 773.4 | 765.9 | 757.9 | 749.8 | 741.7 | 734.4 | 726.3
40000 kPa | 778.9 | 772 | 764.1 | 756.3 | 748.5 | 741.6 | 733.9
50000 kPa | 784.2 | 777.4 | 769.8 | 762.3 | 754.8 | 748.2 | 740.8
60000 kPa | 789.3 | 782.7 | 775.2 | 768 | 760.7 | 754.3 | 747.4
70000 kPa | 794 | 787.4 | 780.3 | 773.2 | 766.3 | 760 | 753.3
80000 kPa | 798.5 | 792.1 | 785.1 | 778.2 | 771.5 | 765.4 | 759.1
90000 kPa | 802.8 | 796.5 | 789.7 | 783 | 776.5 | 770.6 | 764.2
100000 kPa | 806.9 | 800.8 | 794.1 | 787.6 | 781.1 | 775.4 | 769.3
110000 kPa | 810.8 | 805 | 798.4 | 792.1 | 785.6 | 780.1 | 774.1
120000 kPa | 814.7 | 808.8 | 802.4 | 796.2 | 790 | 784.4 | 778.6
130000 kPa | 818.4 | 812.5 | 806.4 | 800.3 | 794.2 | 788.7 | 782.9
140000 kPa | 822 | 816.1 | 810.1 | 804.2 | 798 | 792.8 | 787.2

CCCCCCCN [1-heptanamine]
mass density [kg/m3]
Conditions | 293.15 K | 303.15 K | 313.15 K | 323.15 K | 333.15 K | 343.15 K | 353.15 K
100 kPa | 774.9 | 766.5 | 758.2 | 749.8 | 741.4 | 732.6 | 724.4
10000 kPa | 781.1 | 773.6 | 765.4 | 757.6 | 749.5 | 741.7 | 733.7
20000 kPa | 787.1 | 780 | 772 | 764.5 | 756.8 | 749.6 | 741.9
30000 kPa | 792.6 | 785.8 | 778.2 | 771 | 763.4 | 756.7 | 749.3
40000 kPa | 797.8 | 791.3 | 784 | 777 | 769.6 | 763.3 | 756.2
50000 kPa | 802.7 | 796.5 | 789.3 | 782.6 | 775.5 | 769.4 | 762.6
60000 kPa | 807.4 | 801.3 | 794.5 | 787.8 | 780.9 | 775.1 | 768.7
70000 kPa | 811.8 | 806 | 799.2 | 792.7 | 786.2 | 780.4 | 774.2
80000 kPa | 816.1 | 810.4 | 803.7 | 797.5 | 791.1 | 785.5 | 779.5
90000 kPa | 820.2 | 814.6 | 808 | 802 | 795.6 | 790.3 | 784.3
100000 kPa | 824 | 818.7 | 812.2 | 806.3 | 800 | 794.9 | 789.2
110000 kPa | 827.8 | 822.5 | 816.2 | 810.6 | 804.3 | 799.2 | 793.7
120000 kPa | 831.5 | 826.2 | 820.1 | 814.5 | 808.4 | 803.3 | 797.9
130000 kPa | 835 | 829.9 | 823.8 | 818.4 | 812.4 | 807.4 | 802.1
140000 kPa | 838.3 | 833.3 | 827.4 | 822.1 | 816.2 | 811.3 | 806.1
